Source: US20210002262A1, “CYANOPYRROLIDINES AS USP30 INHIBITORS AND FIBROSIS TREATMENT” (MISSION THERAPEUTICS LIMITED, priority 2018, published 2021)
Entries after “also recorded” stand apart in the source; their conditions may differ.

Biological target: T1, USP30 (Homo sapiens, UniProt Q70CQ3)
T1 sequence (Q70CQ3 1-517): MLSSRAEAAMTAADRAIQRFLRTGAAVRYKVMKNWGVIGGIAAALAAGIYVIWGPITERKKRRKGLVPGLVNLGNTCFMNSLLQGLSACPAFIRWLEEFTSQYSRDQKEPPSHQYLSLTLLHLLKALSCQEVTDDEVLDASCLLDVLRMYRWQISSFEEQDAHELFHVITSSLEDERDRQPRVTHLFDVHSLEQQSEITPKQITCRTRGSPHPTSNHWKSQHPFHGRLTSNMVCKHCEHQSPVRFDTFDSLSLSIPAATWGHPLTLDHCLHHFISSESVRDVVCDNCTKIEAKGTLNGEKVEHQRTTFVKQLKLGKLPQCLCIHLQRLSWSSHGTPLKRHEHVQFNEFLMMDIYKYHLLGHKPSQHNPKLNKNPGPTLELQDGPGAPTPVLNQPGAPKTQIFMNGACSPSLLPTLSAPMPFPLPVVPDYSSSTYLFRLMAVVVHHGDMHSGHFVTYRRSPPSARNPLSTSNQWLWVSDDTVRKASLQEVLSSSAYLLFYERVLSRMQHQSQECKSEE
Test: USP30 biochemical IC50 assay
Conditions: not given
Method: Dilution plates were prepared at 21 times the final concentration (2100 μM for a final concentration of 100 μM) in 50% DMSO in a 96-well polypropylene V-bottom plate (Greiner #651201). A typical 8-point dilution series would be 100, 30, 10, 3, 1, 0.3, 0.1, 0.03 μM final. Reactions were performed in duplicate in black 384 well plates (small volume, Greiner 784076) in a final reaction volume of 21 μl. Either 1 μl of 50% DMSO or diluted compound was added to the plate. USP30 was diluted in reaction buffer (40 mM Tris, pH 7.5, 0.005% Tween 20, 0.5 mg/ml BSA, 5 mM beta-mercaptoethanol) to the equivalent of 0.05 μl/well and 10 μl of diluted USP30 was added to the compound. Enzyme and compound were incubated for 30 min at room temp. Reactions were initiated by the addition of 50 nM of TAMRA labelled peptide linked to ubiquitin via an iso-peptide bond as fluorescence polarisation substrate. Reactions were read immediately after addition of substrate and following a 2-hour incubation at room temperature. Readings were performed on a Pherastar Plus (BMG Labtech). λ Excitation 540 nm; λ Emission 590 nm.

Row | Compound | IC50 [nM]
1 | N#CN1CCC(CNC(=O)c2ncn(-c3ccccc3)n2)C1 (stereo not shown) [Example 3, N-((1-cyanopyrrolidin-3-yl)methyl)-1-phenyl-1H-1,2,4-triazole-3-carboxamide] | 100 to 1000
2 | N#CN1CC[C@H](CNC(=O)c2cnn(-c3cccc(Cl)c3)n2)C1 [Example 7, (R)-2-(3-chlorophenyl)-N-((1-cyanopyrrolidin-3-yl)methyl)-2H-1,2,3-triazole-4-carboxamide] | < 10
3 | N#CN1CC[C@H](CNC(=O)c2cn(-c3cccc(Cl)c3)nn2)C1 [Example 6, (R)-1-(3-chlorophenyl)-N-((1-cyanopyrrolidin-3-yl)methyl)-1H-1,2,3-triazole-4-carboxamide] | 100 to 1000
4 | C[C@@H]1C(CNC(=O)c2ncn(-c3cccc(C#N)c3)n2)CCN1C#N (mixture of isomers) [Example 4, N-(((2R,3R)-1-cyano-2-methylpyrrolidin-3-yl)methyl)-1-(3-cyanophenyl)-1H-1,2,4-triazole-3-carboxamide and N-(((2R,3S)-1-cyano-2-methylpyrrolidin-3-yl)methyl)-1-(3-cyanophenyl)-1H-1,2,4-triazole-3-carboxamide] | 10 to 100

Same assay, conditions: Examples of WO 2017/103614

Row | Compound | IC50 [nM]
5 | N#CN1CCC(CNC(=O)c2csc(-c3ccccc3)n2)C1 (stereo not shown) [Example 26, N-((1-cyanopyrrolidin-3-yl)methyl)-2-phenylthiazole-4-carboxamide] | 100 to 1000
6 | N#Cc1cccc(-n2cnc(C(=O)NC[C@H]3CCN(C#N)C3)c2)c1 [Example 71, (R)-1-(3-cyanophenyl)-N-((1-cyanopyrrolidin-3-yl)methyl)-1H-imidazole-4-carboxamide] | 10 to 100
7 | N#CN1CCC(CNC(=O)c2cc(-c3ccccc3)no2)C1 (stereo not shown) [Example 21, N-((1-cyanopyrrolidin-3-yl)methyl)-3-phenylisoxazole-5-carboxamide] | 100 to 1000
8 | N#CN1CCC(CNC(=O)c2cc(-c3ccccc3F)n[nH]2)C1 (stereo not shown) [Example 31, N-((1-cyanopyrrolidin-3-yl)methyl)-3-(2-fluorophenyl)-1H-pyrazole-5-carboxamide] | 100 to 1000
9 | N#CN1CC[C@H](CNc2ncc(-c3ccccc3)s2)C1 [Example 9, (R)-3-(((5-phenylthiazol-2-yl)amino)methyl)pyrrolidine-1-carbonitrile] | 10 to 100
10 | N#Cc1ccc(-n2cnc(C(=O)NC[C@H]3CCN(C#N)C3)c2)cc1 [Example 72, (R)-1-(4-cyanophenyl)-N-((1-cyanopyrrolidin-3-yl)methyl)-1H-imidazole-4-carboxamide] | 100 to 1000
11 | N#CN1CC[C@H](CNC(=O)c2cc(-c3ccccc3)on2)C1 [Example 58, (R)-N-((1-cyanopyrrolidin-3-yl)methyl)-5-phenylisoxazole-3-carboxamide] | 100 to 1000
12 | N#CN1CC[C@H](CNC(=O)c2nc(-c3ccccc3)cs2)C1 [Example 62, (R)-N-((1-cyanopyrrolidin-3-yl)methyl)-4-phenylthiazole-2-carboxamide] | 100 to 1000
13 | N#CN1CC[C@H](CNC(=O)c2ccn(-c3ccccc3)n2)C1 [Example 63, (R)-N-((1-cyanopyrrolidin-3-yl)methyl)-1-phenyl-1H-pyrazole-3-carboxamide] | 100 to 1000
14 | N#CN1CCC(CNC(=O)c2cc(-c3ccccc3)[nH]n2)C1 (stereo not shown) [Example 22, N-((1-cyanopyrrolidin-3-yl)methyl)-5-phenyl-1H-pyrazole-3-carboxamide] | 100 to 1000
15 | N#CN1CCC(CNC(=O)c2cnc(-c3ccccc3)o2)C1 (stereo not shown) [Example 20, N-((1-cyanopyrrolidin-3-yl)methyl)-2-phenyloxazole-5-carboxamide] | 100 to 1000
16 | N#Cc1cccc(-c2nnc(C(=O)NC[C@@H]3CCN(C#N)C3)o2)c1 [Example 69, (S)-5-(3-cyanophenyl)-N-((1-cyanopyrrolidin-3-yl)methyl)-1,3,4-oxadiazole-2-carboxamide] | 10 to 100
17 | N#CN1CC[C@H](CNC(=O)c2cc(-c3ccc(Cl)cc3)no2)C1 [Example 67, (R)-3-(4-chlorophenyl)-N-((1-cyanopyrrolidin-3-yl)methyl)isoxazole-5-carboxamide] | 100 to 1000
18 | N#CN1CC[C@H](CNC(=O)c2cnc(-c3ccccc3)[nH]2)C1 [Example 64, (R)-N-((1-cyanopyrrolidin-3-yl)methyl)-2-phenyl-1H-imidazole-5-carboxamide] | 100 to 1000
19 | N#CN1CC[C@H](CNC(=O)c2cc(-c3cccc(Cl)c3)no2)C1 [Example 55, (R)-3-(3-chlorophenyl)-N-((1-cyanopyrrolidin-3-yl)methyl)isoxazole-5-carboxamide] | 10 to 100
20 | N#CN1CC[C@H](CNC(=O)c2cc(-c3ccccc3Cl)no2)C1 [Example 66, (R)-3-(2-chlorophenyl)-N-((1-cyanopyrrolidin-3-yl)methyl)isoxazole-5-carboxamide] | 100 to 1000
21 | N#CN1CCC(CNC(=O)c2ncc(-c3ccccc3)o2)C1 (stereo not shown) [Example 38, N-((1-cyanopyrrolidin-3-yl)methyl)-5-phenyloxazole-2-carboxamide] | 100 to 1000

Tested on: Bleomycin-induced lung fibrosis
Test: Bleomycin-induced lung fibrosis model
Conditions: 100 mg/kg pirfenidone BID, oral, days 7 to 21, bleomycin 1.5 U/kg
Method: Treatment group animals (n=10/group) received 1.5 U/kg of clinical bleomycin via oropharyngeal route on day 0 under inhalant anaesthesia. Animals were monitored for tolerance of the bleomycin administration procedure and subsequently bodyweights of all mice were recorded at least 3 times per week during the study. […] All treatments were administered orally.
At day 21, lungs were harvested from each animal and weighed, followed by fixation in 10% neutral buffered formalin (NBF) for histopathological analysis. The lung samples were processed and embedded with all lobes from each mouse in one paraffin block. Coronal sections through the four major lobes were stained with Masson's Trichrome. For each animal, consecutive lung fields were examined at 200×magnification in a raster pattern using a 20×objective lens and a 10×ocular lens. […] The Fibrotic Index was calculated as the sum of the modified Ashcroft field scores divided by the number of fields examined.

Row | Compound | In life mortality [%]
22 | Cc1ccc(=O)n(-c2ccccc2)c1 [pirfenidone, reference compound] | 0

Tested on: diet-induced NAFLD/NASH
Test: Diet-induced model of NAFLD/NASH
Format: in vivo, mice
Conditions: diet-induced NAFLD/NASH, P.O., 8 weeks; Elafibranor 30 mg/kg QD
Method: Mice were fed Amylin-diet (D09100301, Research Diets, US; 40% fat (18% trans-fat), 40% carbohydrate (20% fructose) and 2% cholesterol) for 37 weeks. Liver biopies were harvested and mice were randomization into treatment groups based on liver Colla1 quantification. Three weeks following biopsy surgery, study animals were dosed orally (P.O.) with either; Vehicle (0.5% HPMC/0.5% PVP/0.1% SDS nanosuspension), MT#1 @ 15 mg/kg QD or MT#1 @ […] QD […] or with Elafibranor @ 30 mg/kg QD (positive control) for eight (8) weeks. A control group of age- and sex-matched mice fed lean chow diet ad libitum were also administered vehicle (P.O) over the same 8 (eight) week period. Following the full dosing schedule, mice were sacrificed, whole livers resected and weighed, fixed in paraformaldehyde before being paraffin embedded. H&E stained slides were then prepared and the average % fractional area of lipid vacuoles (steatosis) determined for each section (@ 20×objective) using Visiomorph software (Visophram, Denmark). The average % fractional area was multiplied by the total liver weight to determine the total liver lipid content per animal. Values expressed as mean of n=9-12+SEM. Dunnett's test one-factor linear model. **: P<0.01, ***: P<0.001 compared to DIO-NASH Vehicle.
Summary of fibrosis stage scores of pre- and post-study liver biopsies harvested from the diet-induced NAFLD/NASH study. Fibrosis stage scores are determined by assessment of picosirius red stained liver sections for relative appearance and location of collagen staining, where; 0=No staining, 1=Perisinusoidal or periportal, 2=Perisinusoidal and periportal and […]=Bridging collagen staining observed. For each group of animals with higher (worsening), same or lower (improvement) in score at post-compared to pre-study is indicated by the height of the bar. One-sided Fisher's exact test with Bonferroni correction. No differences at significance level 0.05.

Row | Compound | fibrotic stage scores (picosirius red stained liver sections, post- compared to pre-study biopsy) | liver steatosis
23 | CSc1ccc(C(=O)/C=C/c2cc(C)c(OC(C)(C)C(=O)O)c(C)c2)cc1 [Elafibranor, reference compound] | Neither MT#1 or Elafibranor (positive control) significantly improved; also recorded: failed to statistically improve | significantly reducing

Tested on: Unilateral ureteral obstruction (UUO) kidney fibrosis
Test: Unilateral ureteral obstructive kidney disease model (UUO)
Format: in vivo
Conditions: UUO, 20 mg/kg IN-1130 QD IP, days 0 to 10
Text: In this study, adult C57B16 female mice at 7 to 8 weeks of age with average weight of around 18 to 20 g were used. To complete the ureteral obstruction, the abdominal cavity was exposed via a midline incision and the left ureter was ligated at two points with 4-0 silk and dissected. Successful unilateral ureteral obstruction was later confirmed by observation of dilation of the renal pelvis due to hydronephrosis.
At harvest, mice were anesthetised and both kidneys were harvested; the contralateral kidney serves as control for the UUO kidney. The kidneys were dissected along median line into two parts, of which one side was fixed in formaldehyde, for paraffin embedding and the other was snap frozen for protein or RNA isolation.
Formalin fixed tissue were embedded in paraffin blocks and cut into 5 μm sections. All damaged kidneys, 5 contralateral kidneys from each group and 3 sham kidneys were analysed (in total n=80 kidney samples). Picrosirius Red and α-SMA stain was performed to evaluate fibrotic changes and myofibroblast activation. Analysis was performed by a pathology trained technical staff member, without knowledge of the animal group assignment. High magnification images were taken of each slide an analysed for the surface area covered by the stain.

Row | Compound | In life mortality [%]
24 | Cc1cccc(-c2[nH]c(Cc3cccc(C(N)=O)c3)nc2-c2ccc3nccnc3c2)n1 [IN-1130, reference compound] | 0
